This is an account of results in publication PMC8174486, “Synthesis and preliminary structure-activity relationship study of 3-methylquinazolinone derivatives as EGFR inhibitors with enhanced antiproliferative activities against tumour cells” (Journal of Enzyme Inhibition and Medicinal Chemistry, 2021).

The test system of data set [1] is MCF-7 cells. Put plainly: Cell cycle analysis (flow cytometry). The format is cell-based, human. Conditions: MCF-7, 5 μM, 48 h.
The test system of a further data set is A549 cells. Put plainly: MTT antiproliferative assay, A549. It is filed as cell-based. Conditions: Homo sapiens, mean ± SD of three replicates. The method, then: (§1) A431 (Human epidermoid carcinoma cell line) cell, A549 (Human non-small cell lung cancer cell line) cell, MCF-7 (Human breast adenocarcinoma cell line) cell, and NCI-H1975 (Human non-small cell lung cancer cell line) cell were purchased from the Shanghai Cell Bank of the Chinese Academy of Sciences. NRK-52E (Normal rat kidney cell line) cell was donated by Guizhou Medical University.
(§2) The IC50 value was determined from a sigmoid dose − response curve using Graph-Pad Prism (GraphPad Software, San Diego, CA).

The subject of another data set is NCI-H1975 cells. Put plainly: MTT antiproliferative assay, NCI-H1975. It is filed as cell-based. Conditions: Homo sapiens, mean ± SD of three replicates. The protocol: as §1, §2
For data set [2], the system named is MCF-7 cells. The data set is described as follows: MTT antiproliferative assay, MCF-7. It is filed as cell-based. As to conditions: Homo sapiens, MCF7, mean ± SD of three replicates. The protocol: as §1, §2
For a further data set, the system named is A431 cells. Put plainly: MTT antiproliferative assay, A431. It is filed as cell-based, human. Conditions: mean ± SD of three replicates. The protocol: as §1, §2
A short description of data set [3]: Stability in mice plasma (HPLC). The format is in vitro ADME. As to conditions: 37 °C, 60 min. The method, then: HPLC procedures and spectra
A 2.5 mL centrifuge tube was added 300 µL plasma derived from normal […] (7 weeks, male), and 30 µL compound A or compound 4d in ethanol (50 mM). The mixture was incubated at 37 °C for 60 min, and then treated with 300 µL of CH3CN, separated in centrifugation at 30000 rpm for 10 min. The supernatant was treated with the same procedure for another time and analyzed in HPLC using C18 column (4.6 mm x 250 mm) and mobile phase of CH3CN/H2O (90 : 10) with a flow rate of 1.5 mL/min.
Fig. S1 Metabolic stability in plasma of compound A
Fig. S2 Metabolic stability in plasma of compound 4d […]

The target of another data set is T1, EGFR^wt-TK (Homo sapiens, UniProt P00533).
T1 construct: The recombinant EGFR^wt-TK and Antiphosphotyrosine mouse mAb were purchased from PTM Bio; purchased PTM Bio
T1 sequence (P00533 25-1210): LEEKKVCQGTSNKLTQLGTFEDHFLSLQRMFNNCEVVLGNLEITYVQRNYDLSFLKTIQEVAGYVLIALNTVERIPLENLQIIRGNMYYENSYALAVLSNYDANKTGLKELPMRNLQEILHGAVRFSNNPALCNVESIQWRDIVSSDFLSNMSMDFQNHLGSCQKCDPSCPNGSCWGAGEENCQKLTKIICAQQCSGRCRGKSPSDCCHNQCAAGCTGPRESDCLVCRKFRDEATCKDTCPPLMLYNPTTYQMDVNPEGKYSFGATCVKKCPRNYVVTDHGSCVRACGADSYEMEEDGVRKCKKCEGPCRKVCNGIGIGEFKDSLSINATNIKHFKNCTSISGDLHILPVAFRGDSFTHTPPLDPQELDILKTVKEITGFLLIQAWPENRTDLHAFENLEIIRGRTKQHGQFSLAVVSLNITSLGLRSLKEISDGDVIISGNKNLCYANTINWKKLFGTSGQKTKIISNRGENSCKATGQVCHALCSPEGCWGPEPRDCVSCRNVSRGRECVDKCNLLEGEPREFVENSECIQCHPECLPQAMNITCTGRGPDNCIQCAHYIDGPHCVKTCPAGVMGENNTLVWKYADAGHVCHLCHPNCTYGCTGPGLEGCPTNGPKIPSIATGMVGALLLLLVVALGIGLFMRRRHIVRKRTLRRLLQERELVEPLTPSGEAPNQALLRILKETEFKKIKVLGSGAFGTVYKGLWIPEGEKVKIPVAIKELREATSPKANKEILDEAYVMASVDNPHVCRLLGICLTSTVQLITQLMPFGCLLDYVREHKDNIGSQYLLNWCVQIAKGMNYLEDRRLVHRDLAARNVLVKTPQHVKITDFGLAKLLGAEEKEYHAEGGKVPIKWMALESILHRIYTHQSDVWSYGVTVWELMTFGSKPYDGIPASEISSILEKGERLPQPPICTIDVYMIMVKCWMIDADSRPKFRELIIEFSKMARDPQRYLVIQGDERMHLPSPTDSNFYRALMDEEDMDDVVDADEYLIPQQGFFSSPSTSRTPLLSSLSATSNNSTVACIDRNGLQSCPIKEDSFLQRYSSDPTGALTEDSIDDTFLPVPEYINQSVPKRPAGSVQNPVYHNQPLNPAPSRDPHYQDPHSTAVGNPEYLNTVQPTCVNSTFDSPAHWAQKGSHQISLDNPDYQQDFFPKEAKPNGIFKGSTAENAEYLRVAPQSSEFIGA
Put plainly: In vitro EGFR^wt-TK assay (ELISA). The format is biochemical. As to conditions: mean ± SD of three replicates. The method, then:
Enzymatic inhibition of synthesised compounds against wild type EGFR tyrosine kinase was determined with enzyme-linked immunosorbent assays (ELISAs) as our previous methods. The recombinant EGFR^wt-TK and Antiphosphotyrosine mouse mAb were purchased from PTM Bio. The IC50 value was determined from a sigmoid dose − response curve using Graph-Pad Prism (GraphPad Software, San Diego, CA).

The subject of data set [4] is MCF-7 cells. Put plainly: Cell apoptosis analysis (Annexin V-FITC/PI flow cytometry). It is filed as cell-based, human. As to conditions: MCF-7, 5 μM, 48 h.

For `COc1cc2ncnc(Nc3ccc(F)c(Cl)c3)c2cc1OCCCN1CCOCC1` [Gefitinib, reference compound], the “percentage of cells in G2/M” value in the data set with MCF-7 cells [1] was found to be 11.58%.
Turning to `Cn1c(COc2ccc(/C=N/c3cccc(F)c3)cc2)nc2ccccc2c1=O` [A, reference compound], the IC50 was determined as 17.9 ± 2.11 µM with A549 cells; 19.2 ± 3.02 µM with NCI-H1975 cells; 14.1 ± 1.85 µM with MCF-7 cells [2]; 17.7 ± 2.08 µM in the data set with A431 cells (Homo sapiens, A-431, MTT). The “stability in mice plasma” value in data set [3] (SD mice plasma) is listed as “not stable”.
`Cn1c(COc2ccc(NC(=O)/C=C/c3ccc(F)c(F)c3)cc2)nc2ccccc2c1=O` [Compound 4f, (E)-3-(3,4-Difluorophenyl)-N-(4-((3-methyl-4-oxo-3,4-dihydroquinazolin-2-yl)methoxy)phenyl)acrylamide]: the melting point was in the range of 235 to 236 °C. It took 8.46 ± 0.67 µM to reach half-maximal inhibition in the data set with A549 cells (IC50). This compound registered an IC50 with NCI-H1975 cells of 9.33 ± 0.78 µM. Also, the IC50 on EGFR^wt-TK worked out at 0.38 ± 0.075 µM. For the same compound, half-maximal inhibition with MCF-7 cells [2] (IC50) was put at 2.84 ± 0.22 µM. In the data set with A431 cells (Homo sapiens, A-431, MTT), this compound yielded an IC50 of 8.76 ± 0.74 µM.
Compound `Cn1c(COc2ccc(NC(=O)Nc3cccc(F)c3)cc2)nc2ccccc2c1=O` [Compound 4g, 1-(3-Fluorophenyl)-3-(4-((3-methyl-4-oxo-3,4-dihydroquinazolin-2-yl)methoxy)phenyl)urea] came in with a melting point of 195 to 196 °C. For the same compound, in the data set on A549 cells, 7.31 ± 0.59 µM corresponded to half-maximal inhibition (IC50). In the data set on NCI-H1975 cells, this compound came in with an IC50 of 10.2 ± 1.03 µM. This compound also registered an IC50 on EGFR^wt-TK of 0.71 ± 0.093 µM. For the same compound, the IC50 in the data set on MCF-7 cells [2] was 10.7 ± 2.07 µM. In the data set with A431 cells (Homo sapiens, A-431, MTT), this compound came in with an IC50 of 8.34 µM. The IC50 in the data set with A431 cells (MTT) turned out to be 8.35 ± 0.46 µM.
On to `Cn1c(COc2ccc(C(=O)Nc3cccc(F)c3)cc2)nc2ccccc2c1=O` [Compound 4b, N-(3-Fluorophenyl)-4-((3-methyl-4-oxo-3,4-dihydroquinazolin-2-yl)methoxy)benzamide], for which the melting point fell in the range of 196 to 197 °C. The IC50 with A549 cells was 9.08 ± 0.69 µM. The compound also had an IC50 in the data set on NCI-H1975 cells of 12.9 ± 1.44 µM. This compound also returned an IC50 at EGFR^wt-TK of 1.63 ± 0.15 µM. The compound further yielded an IC50 in the data set on MCF-7 cells [2] of 9.64 ± 0.88 µM. This compound also returned an IC50 with A431 cells (Homo sapiens, A-431, MTT) of 8.72 ± 0.46 µM.
Regarding `Cn1c(COc2ccc(NC(=O)c3ccc(F)c(F)c3)cc2)nc2ccccc2c1=O` [Compound 4e, 3,4-Difluoro-N-(4-((3-methyl-4-oxo-3,4-dihydroquinazolin-2-yl)methoxy)phenyl)benzamide], the melting point fell in the range of 248 to 249 °C. In the data set on A549 cells, this compound came in with an IC50 of 2.69 ± 0.32 µM. Besides, 7.18 ± 0.49 µM corresponded to half-maximal inhibition with NCI-H1975 cells (IC50). At EGFR^wt-TK, this compound yielded an IC50 of 0.061 ± 0.007 µM. Also, in the data set on MCF-7 cells [2], the midpoint of inhibition, the IC50, lay at 0.96 ± 0.21 µM. The compound also displayed an IC50 in the data set on A431 cells (Homo sapiens, A-431, MTT) of 3.53 ± 0.34 µM.
`Cn1c(COc2ccc(NC(=O)c3cccc(F)c3)cc2)nc2ccccc2c1=O` [Compound 4d, 3-Fluoro-N-(4-((3-methyl-4-oxo-3,4-dihydroquinazolin-2-yl)methoxy)phenyl)benzamide] registered a melting point of 228 to 229 °C. Also, it took 2.55 ± 0.26 µM to reach half-maximal inhibition in the data set on A549 cells (IC50). The compound further returned an IC50 in the data set with NCI-H1975 cells of 6.42 ± 0.47 µM. The compound further returned an IC50 against EGFR^wt-TK of 0.053 ± 0.008 µM. In the data set on MCF-7 cells [2], this compound came in with an IC50 of 0.87 ± 0.14 µM. For the same compound, the “percentage of cells in G2/M” value in the data set with MCF-7 cells [1] worked out at 10.38%. The IC50 in the data set on A431 cells (Homo sapiens, A-431, MTT) was 3.48 ± 0.49 µM. The “ratio of apoptotic cells (late)” value with MCF-7 cells [4] turned out to be 41.36%. Moreover, the “purity after incubation with mice plasma” value in data set [3] (Sprague Dawley (SD) mice plasma) is listed as “higher than 98%”.
Take `Cn1c(COc2ccc(/C=C/C(=O)c3cccc(F)c3)cc2)nc2ccccc2c1=O` [Compound 4a, (E)-2-((4–(3-(3-Fluorophenyl)-3-oxoprop-1-enyl)phenoxy)methyl)-3-methylquinazolin-4(3H)-one]: the melting point was 208 to 209 °C. The same compound gave an IC50 in the data set on A549 cells of 8.63 ± 0.41 µM. Moreover, the IC50 with NCI-H1975 cells is 13.7 ± 1.61 µM. This compound gave an IC50 on EGFR^wt-TK of 2.71 ± 0.22 µM. The compound also registered an IC50 in the data set on MCF-7 cells [2] of 10.6 ± 1.03 µM. Also, in the data set on A431 cells (Homo sapiens, A-431, MTT), 9.32 ± 0.57 µM corresponded to half-maximal inhibition (IC50).
The compound `Cn1c(COc2ccc(/C=C/c3cccc(F)c3)cc2)nc2ccccc2c1=O` [Compound 4c, (E)-2-((4-(3-Fluorostyryl)phenoxy)methyl)-3-methylquinazolin-4(3H)-one] showed a melting point of 160 to 162 °C. This compound also returned an IC50 in the data set with A549 cells of 4.26 ± 0.57 µM. This compound also returned an IC50 with NCI-H1975 cells of 6.44 ± 0.85 µM. Also, at EGFR^wt-TK, the midpoint of inhibition, the IC50, lay at 0.2 ± 0.041 µM. In the data set with MCF-7 cells [2], this compound gave an IC50 of 6.04 ± 0.73 µM. In the data set on A431 cells (Homo sapiens, A-431, MTT), the midpoint of inhibition, the IC50, lay at 6.79 ± 0.72 µM.
